Data published in patent publication US7320984B2, “Remedies or preventives for urinary frequency or urinary incontinence and morphinan derivatives having nitrogen-containing heterocyclic group” (Toray Industries, Inc., priority 2002, dated 2008).

System: rhythmic bladder contractions in rats
Assay: Inhibitory effect against rhythmic bladder contractions in rats
Type: in vivo
Conditions: anesthetized female SD rats, intravenous
How it was run: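 Urethane-anesthetized (1.0 g/kg i.p.) female SD rats; saline infused into bladder to induce rhythmic contractions, intravesical pressure monitored. Compound given i.v. at 1 ml/kg in saline, 10% or 20% aqueous DMSO, or 5% aqueous xylitol. Inhibitory time = period intravesical pressure stayed ≤50% of post-dose level (onset within 10 min); vehicles tested alone.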

SMILES	Mean Inhibitory Time of Rhythmic Bladder Contractions (dose 0.1 mg/kg body weight) [min]	Mean Inhibitory Time of Rhythmic Bladder Contractions (dose 0.01 mg/kg body weight) [min]	further results
COc1cccc2c1C(=O)N([C@@H]1CC[C@@]3(O)[C@H]4Cc5ccc(O)c6c5[C@@]3(CCN4CC3CC3)[C@H]1O6)C2=O [Compound 102, N-(17-cyclopropylmethyl-4,5α-epoxy-3,14-dihydroxy-morphinan-6β-yl)-3-methoxy-phthalimide]	15.6	–	–
O=c1c2ccccc2[nH]n1[C@@H]1CC[C@@]2(O)[C@H]3Cc4ccc(O)c5c4[C@@]2(CCN3CC2CC2)[C@H]1O5 [Compound 103, 2-(17-cyclopropylmethyl-4,5α-epoxy-3,14-dihydroxy-morphinan-6β-yl)-1,2-dihydro-indazol-3-one]	13.1	–	–
O=c1[nH]c2ccccc2c(=O)n1[C@@H]1CC[C@@]2(O)[C@H]3Cc4ccc(O)c5c4[C@@]2(CCN3CC2CC2)[C@H]1O5 [Compound 104, 3-(17-cyclopropylmethyl-4,5α-epoxy-3,14-dihydroxy-morphinan-6β-yl)-1H-quinazolin-2,4-dione]	13.5	–	–
O=c1c2ccccc2[nH]c(=S)n1[C@@H]1CC[C@@]2(O)[C@H]3Cc4ccc(O)c5c4[C@@]2(CCN3CC2CC2)[C@H]1O5 [Compound 105, 3-(17-cyclopropylmethyl-4,5α-epoxy-3,14-dihydroxy-morphinan-6β-yl)-2-thioxo-2,3-dihydro-1H-quinazolin-4-one]	7.3	–	–
O=C1Cc2ccccc2C(=O)N1[C@@H]1CC[C@@]2(O)[C@H]3Cc4ccc(O)c5c4[C@@]2(CCN3CC2CC2)[C@H]1O5 [Compound 106, 2-(17-cyclopropylmethyl-4,5α-epoxy-3,14-dihydroxy-morphinan-6β-yl)-4H-isoquinolin-1,3-dione]	–	12.9	–
O=S1(=O)c2ccccc2S(=O)(=O)N1[C@@H]1CC[C@@]2(O)[C@H]3Cc4ccc(O)c5c4[C@@]2(CCN3CC2CC2)[C@H]1O5 [Compound 107, 2-(17-cyclopropylmethyl-4,5α-epoxy-3,14-dihydroxy-morphinan-6β-yl)-benzo[1,3,2]dithiazol-1,1,3,3-tetraoxide]	–	14.1	–
O=C1c2ccccc2S(=O)(=O)N1[C@@H]1CC[C@@]2(O)[C@H]3Cc4ccc(O)c5c4[C@@]2(CCN3CC2CC2)[C@H]1O5 [Compound 108, N-(17-cyclopropylmethyl-4,5α-epoxy-3,14-dihydroxy-morphinan-6β-yl)-O-sulfonebenzimide]	–	25.6	–
C=CCN1CC[C@]23c4c5ccc(O)c4O[C@H]2[C@H](N2C(=O)c4ccccc4S2(=O)=O)CC[C@@]3(O)[C@H]1C5 [Compound 109, N-(17-allyl-4,5α-epoxy-3,14-dihydroxy-morphinan-6β-yl)-O-sulfonebenzimide]	18.1	–	–
O=S1(=O)c2ccccc2CN1[C@@H]1CC[C@@]2(O)[C@H]3Cc4ccc(O)c5c4[C@@]2(CCN3CC2CC2)[C@H]1O5 [Compound 110, N-(17-cyclopropylmethyl-4,5α-epoxy-3,14-dihydroxy-morphinan-6β-yl)-2,3-dihydro-benzo[d]isothiazol-1,1-dioxide]	12.6	–	–
Oc1ccc2c3c1O[C@H]1[C@H](N4CCCC4)CC[C@@]4(O)[C@@H](C2)N(CC2CC2)CC[C@]314 [Compound 111, 17-cyclopropylmethyl-4,5α-epoxy-6β-(pyrrolidin-1-yl)-morphinan-3,14-diol]	–	–	Mean Inhibitory Time of Rhythmic Bladder Contractions (dose 1.0 mg/kg body weight): 2.8 min
